According to PubChem BioAssay (NCI):
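1) Cells in 96-well plates. 2) Compound, 48 h, 5 concentrations. 3) Linear interpolation between surrounding doses. 4) Unreached endpoint = highest concentration. Definition used: TGI = concentration required for complete inhibition of growth.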

Legend:
Test in all cases: NCI anticancer screen, dose series, 48 h
[1] = system: SK-MEL-5 melanoma
[2] = system: EKVX NSCLC
[3] = system: UO-31 renal
[4] = system: SW-620 colon
[5] = system: ACHN renal
[6] = system: HOP-62 NSCLC
[7] = system: PC-3 prostate
[8] = system: TK-10 renal
[9] = system: OVCAR-5 ovarian
[10] = system: MDA-MB-435

| Compound | TGI [1] [µM] | TGI [2] [µM] | TGI [3] [µM] | TGI [4] [µM] | TGI [5] [µM] | TGI [6] [µM] | TGI [7] [µM] | TGI [8] [µM] | TGI [9] [µM] | TGI [10] [µM] |
| --- | --- | --- | --- | --- | --- | --- | --- | --- | --- | --- |
| CCOC(=O)CC/C(=N/Nc1ccc(Cl)cc1[N+](=O)[O-])C(=O)OCC | > 100 | > 100 | > 100 | > 100 | > 100 | > 100 | > 100 | > 100 | > 100 | > 100 |
| O=C(c1ccccc1)c1ccc2c(c1)NC(=O)c1ccccc1SSc1ccccc1C(=O)N2 | > 100 | > 100 | > 100 | > 100 | > 100 | > 100 | > 100 | > 100 | > 100 | > 100 |
| COc1cc2c(cc1OCCCN1C(=O)c3cccc4cccc(c34)C1=O)N=C[C@@H]1CCCN1C2=O | > 63.6 | > 100 | > 71 | > 63 | > 63.4 | > 100 | > 100 | > 100 | > 100 | > 100 |
| CC1OC(O[C@H]2C3C=CO[C@@H](OC4OC(CO)C(O)C(O)C4O)C3[C@@]3(COC(=O)/C=C/c4ccccc4)O[C@@H]23)C(O)C(O)C1O (stereo not given in full) | > 100 | > 100 | > 100 | > 100 | > 100 | > 100 | > 100 | > 100 | > 100 | > 100 |
| COc1cc(C=O)ccc1O | > 100 | > 100 | > 100 | > 100 | > 100 | > 100 | > 100 | > 100 | > 100 | > 100 |
| COC(=O)c1ccccc1CC1Cc2cccc(C)c2C1=O (stereo not given) | 37.5 | 41.9 | 67.2 | > 100 | > 100 | > 100 | 77.8 | 71.1 | > 100 | 50.8 |
| O=C(O)C(O)C(O)C(O)C(O)CO (stereo not given) | > 100 | > 100 | > 100 | > 100 | > 100 | > 100 | > 100 | > 100 | > 100 | > 100 |
| OC(C#CCN1CCCC1)(c1ccccc1)c1ccccc1Cl (stereo not given) | 31.5 | > 100 | > 100 | 39.3 | 71.3 | 38.7 | 80.2 | > 100 | > 100 | 51.5 |
| CC(C)Oc1cccc(N2C(=NCc3c[nH]c4ccccc34)Nc3ccncc3S2(=O)=O)c1 | 27.7 | 79 | > 100 | > 100 | > 100 | > 100 | 83.4 | 97.4 | > 100 | > 100 |
| C=C(C)CNCCN | > 100 | > 100 | > 100 | > 100 | > 100 | > 100 | > 100 | > 100 | > 100 | > 100 |
| CC1=C(C#N)c2nc3ccccc3n2C(=O)C1(C)CCO (stereo not given) | > 100 | > 100 | > 100 | > 100 | > 100 | > 100 | > 100 | > 100 | > 100 | > 100 |
| [N-]=[N+]=CC(=O)OC(CCl)CCl | > 100 | > 100 | > 100 | > 100 | > 100 | > 100 | > 100 | > 100 | > 100 | > 100 |
| COc1ccc2oc(=N)c(C(=O)Nc3ccccc3)cc2c1 | > 100 | > 100 | > 100 | 80.9 | > 100 | 41.7 | > 100 | > 100 | > 100 | 32.3 |
| CC1(C)C=CC(=O)C(O)C(C)(C)C1=O (stereo not given) | > 100 | > 100 | > 100 | > 100 | > 100 | > 100 | > 100 | > 100 | > 100 | > 100 |
| CSc1csc(-c2ccc(-c3ccc(-c4cc(SC)cs4)s3)s2)c1 | > 100 | > 100 | > 100 | > 100 | > 100 | > 100 | > 100 | > 100 | > 100 | > 100 |
| CC(C)N1CCN(c2ccc(OCC3COC(Cn4cncn4)(c4ccc(Cl)cc4Cl)O3)cc2)CC1 (stereo not given) | 4.92 | 30.6 | > 42.5 | 37.4 | 47.1 | 28.5 | 35.1 | 26.1 | 29.8 | 15.8 |
| CN(C)Cc1cc(C(=O)/C=C/c2ccc([N+](=O)[O-])cc2)cc(CN(C)C)c1O | 23.4 | 37.3 | > 100 | 27.1 | 10.2 | 19.5 | 33.9 | 45.7 | 34.5 | 37.3 |
| C/C1=C\[C@H](C)C[C@H](C)OC(=O)[C@H](C)NC(=O)[C@@H](Cc2ccc(O)c(Br)c2)N(C)C(=O)[C@H](C)NC(=O)[C@@H](C)C1 | 0.315 | > 4.7 | 0.152 | > 25 | 1.04 | 0.112 | 24.6 | 0.269 | > 25 | > 25 |
| COc1ccc(-c2nc3ccccc3c(=S)n2OC(C)=O)cc1 | > 25 | > 25 | > 25 | > 25 | > 25 | > 25 | > 25 | > 25 | > 25 | > 25 |

| Compound | TGI [1] [µM] | TGI [2] [µM] | TGI [3] [µM] | TGI [4] [µM] | TGI [5] [µM] | TGI [6] [µM] | TGI [7] [µM] | TGI [8] [µM] | TGI [9] [µM] | TGI [10] [µM] |
| --- | --- | --- | --- | --- | --- | --- | --- | --- | --- | --- |
| O=C(CN1C(=O)CC(c2ccccc2)(c2ccccc2)C1=O)N1CCN(CCO)CC1 | > 100 | > 100 | > 100 | > 100 | > 100 | > 100 | > 100 | > 100 | > 100 | > 100 |
| Cc1ccsc1/C=N/Nc1cnccn1 | > 100 | > 100 | > 100 | > 100 | > 100 | > 100 | > 100 | > 100 | > 100 | > 100 |
| CC(C)(C)OC(=O)NC(CSSCC(NC(=O)OC(C)(C)C)C(=O)O)C(=O)O (stereo not given) | > 100 | > 100 | > 100 | > 100 | > 100 | > 100 | > 100 | > 100 | > 100 | > 100 |
| O=C(O)c1cccc(S(=O)(=O)NN2C(=O)CSC2c2ccc(Cl)cc2Cl)c1 (stereo not given) | > 100 | > 100 | > 100 | > 100 | > 100 | > 100 | > 100 | > 100 | > 100 | 47 |
| O=C1C(=Nc2ccc(Nc3ccccc3)cc2)Oc2ccccc21 | 16.1 | 27.7 | 5.58 | 4.67 | 9.93 | 22 | 8.58 | 12.2 | 10.1 | 3.45 |
| O=C1c2cccc3cccc(c23)C(=O)N1CCCNCCCCNCCCNCCCN1C(=O)c2cccc3cccc(c23)C1=O | 8.35 | 5.67 | 18.6 | 4.35 | 7.43 | 3.6 | 1.76 | 12.1 | 2.76 | 2 |
| COc1ccc(C(=O)NCCN(C)C)c2nc3ccccc3cc12 | 2.54 | 6.68 | 5.14 | 5.06 | 2.5 | 2.72 | 4.82 | 5.42 | 8.06 | 5.13 |
| Nc1ncc2c(n1)-c1ccccc1OC2N1CCCC1 (stereo not given) | > 100 | > 100 | > 100 | > 100 | > 100 | > 100 | > 100 | > 100 | > 100 | > 100 |
| O=C(CCSC1=NCCCN1)c1ccc(F)cc1 | 36.4 | 27.5 | 20.6 | 15.5 | 31.1 | > 68.9 | 31 | 30.8 | 29.9 | 47.6 |
| Cn1c2ccccc2c2c(=S)c3ccccc3ccc21 | > 100 | > 100 | > 100 | > 100 | > 100 | > 100 | > 100 | > 100 | > 100 | > 100 |
| O=[N+]([O-])c1cc2oc(CSc3ccccc3)nc2cc1Cl | 33.7 | > 100 | 87.3 | > 100 | > 100 | > 100 | > 100 | > 100 | > 100 | > 100 |
| CN1CC[C@]2(c3cccc(O)c3)CC(=O)/C(=C/c3ccccc3)[C@@H]1C2 | 14.7 | 20.2 | 10.4 | 6.93 | 6.74 | 12.7 | 7.74 | 27.1 | 29.7 | 5.38 |
| C[C@@H]1CCC2[C@@H](C)[C@@H](O[C@H]3O[C@@H]4O[C@@]5(C)CCC6[C@H](C)CCC([C@H]3C)[C@]64OO5)O[C@@H]3O[C@@]4(C)CCC1[C@@]23OO4 (stereo not given in full) | > 25 | > 25 | > 25 | > 25 | > 25 | > 25 | > 25 | > 25 | > 25 | > 25 |
| O=c1onc2n1-c1cc(Cl)ccc1C(=S)N1CSCC21 (stereo not given) | > 100 | > 100 | > 100 | > 100 | > 100 | > 100 | > 100 | > 100 | > 100 | > 100 |
| CCN(C(=O)N[C@@H](C)C(=O)N[C@@H](Cc1ccccc1)C(=O)OC)c1ccccc1 | > 100 | > 100 | > 100 | > 100 | > 100 | > 100 | > 100 | > 100 | > 100 | > 100 |
| c1ccc(C(C(=Nc2ccc(Cc3ccc(N=C(C(c4ccccc4)c4ccccc4)N4CC4)cc3)cc2)N2CC2)c2ccccc2)cc1 | 20.1 | 25.9 | 14.8 | 20.1 | 21.3 | 33 | 22.6 | 34.5 | 24.5 | 21.1 |
| OCCCc1ccc2c(c1)[C@H](CO)[C@@H](c1ccc(O)cc1)O2 | 32.7 | > 100 | > 100 | > 100 | > 100 | > 100 | > 100 | > 100 | > 100 | > 100 |
| CC(C)(CO)CNc1nc(N)nc(Cl)c1/C=N/O | 18.8 | > 100 | > 100 | > 100 | > 100 | > 100 | > 100 | > 100 | > 100 | > 100 |
